Reference: BigSolDB 2.1

O=C(O)c1ccccc1
solubility (mole fraction)
Conditions	283.15 K	288.15 K	293.15 K	298.15 K	303.15 K	308.15 K	313.15 K	318.15 K	323.15 K	328.15 K
in 2-pentanone	0.163	0.18	0.196	0.215	0.234	0.256	0.279	0.315	0.349	0.388
in diacetone alcohol	0.234	0.251	0.269	0.287	0.306	0.315	0.336	0.367	0.396	0.426
in isooctane	0.002	0.003	0.005	0.007	0.01	0.013	0.018	0.023	0.031	0.04
in methyl acetate	0.125	0.152	0.175	0.198	0.213	0.237	0.26	0.282	0.318	0.348
in n-pentyl acetate	0.091	0.112	0.133	0.159	0.179	0.198	0.226	0.252	0.282	0.316
in tributyl phosphate	0.492	0.507	0.522	0.53	0.543	0.553	0.563	0.581	0.6	0.631
